Experimental data as given in PMC9497675, “Explore the Interaction between Ellagic Acid and Zein Using Multi-Spectroscopy Analysis and Molecular Docking” (Foods, 2022).

Biological target: T1, zein
T1 construct: gene alpha-zein
Experiment: intrinsic fluorescence quenching (ex […] nm), modified Stern-Volmer double-log plot
Type: binding, Zea mays
Settings: 298 K; 0.05 mg/mL zein in 70% aqueous ethanol; EA stock in 50% methanol; n = 1.2786; apparent constant

KA (L/mol): 9.47 × 10^2
Structure (SMILES): O=c1oc2c(O)c(O)cc3c(=O)oc4c(O)c(O)cc1c4c23 [EA, ellagic acid]
